The values that follow are results of earlier work, collected in patent US20230189810A1, “AQUEOUS COMPOSITION OF DITHI[…]” (priority 2020, published 2023).

For this data set the following is noted: water, 20° C.

In the case of mancozeb, the solubility entry is listed as “about 6.2 mg per liter”.
